# Measurements: paper PMC4215513, “Effect of the Pleiotropic Drug CNB-001 on Tissue Plasminogen Activator (tPA) Protease Activity in vitro: Support for Combination Therapy to Treat Acute Ischemic Stroke” (Journal of neurology & neurophysiology, 2014)
# Structures can show the parent of a compound that is named as a salt.
# Tests used:
# [1] = target: T1, tissue plasminogen activator (tPA) (Homo sapiens, UniProt P00750); experiment: chromogenic substrate protease assay with recombinant tPA; […] inhibition at […]; IC50 extrapolated ([…] min […], […] min […]); format: biochemical
# T1 construct: gene PLAT; Human recombinant tPA (Activase)
# T1 sequence (P00750 36-562): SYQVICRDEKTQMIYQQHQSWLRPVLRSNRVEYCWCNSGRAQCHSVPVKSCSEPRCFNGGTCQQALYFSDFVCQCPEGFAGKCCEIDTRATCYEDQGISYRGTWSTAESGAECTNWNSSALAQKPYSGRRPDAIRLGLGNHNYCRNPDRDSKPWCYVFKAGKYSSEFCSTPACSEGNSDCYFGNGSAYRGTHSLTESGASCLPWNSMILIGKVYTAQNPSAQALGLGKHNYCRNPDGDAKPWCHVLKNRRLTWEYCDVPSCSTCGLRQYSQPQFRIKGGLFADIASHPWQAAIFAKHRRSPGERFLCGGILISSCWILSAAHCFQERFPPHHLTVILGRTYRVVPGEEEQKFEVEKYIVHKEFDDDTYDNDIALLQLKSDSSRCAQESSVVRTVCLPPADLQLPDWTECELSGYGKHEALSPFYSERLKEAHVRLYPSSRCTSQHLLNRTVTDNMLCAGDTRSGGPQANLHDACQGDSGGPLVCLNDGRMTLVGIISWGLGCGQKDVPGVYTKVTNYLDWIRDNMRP
# [2] = target: T1, tissue plasminogen activator (tPA); experiment: chromogenic substrate protease assay with recombinant tPA (positive control inhibitor); format: biochemical
inhibition at 5 µM [2],SMILES,IC50 [1]
,COc1cc(/C=C/c2cc(/C=C/c3ccc(O)c(OC)c3)n(-c3ccccc3)n2)ccc1O [CNB-001],~65.2 µM
83.4%,"N=C(N)c1ccc(C=C2CCCCC(=Cc3ccc(C(=N)N)cc3)C2=O)cc1 [tPA-STOP, 2,7-Bis-(4-amidinobenzylidene)-cycloheptan-1-one dihydrochloride]",
